Columns and labels:
Human alphaherpesvirus 3 [1] = experiment: Antiviral activity evaluated against thymidine kinase deficient(TK-) Varicella Zoster virus (YS); assay type: functional, organism-based
Human alphaherpesvirus 3 [2] = experiment: Antiviral activity evaluated against thymidine kinase competent(TK+) Varicella Zoster virus (07); assay type: functional, organism-based
Human alphaherpesvirus 3 [3] = experiment: Antiviral activity evaluated against Varicella Zoster virus (YS); assay type: functional, organism-based
HEL [4] = experiment: Minimal cytotoxic concentration required to cause a morphological alteration of human embryonic lung fibroblast(HEL) cell cultures; assay type: functional
Human alphaherpesvirus 3 [5] = experiment: Concentration required to give 50% inhibition of replication of VZV OKA in tissue culture; assay type: functional, organism-based
HEL [6] = experiment: Concentration required against HEL cell proliferation; assay type: functional; settings: Homo sapiens
Human betaherpesvirus 5 [7] = experiment: Antiviral activity evaluated against human cytomegalovirus (HCMV) AD169; assay type: functional, organism-based
Human betaherpesvirus 5 [8] = experiment: Antiviral activity evaluated against human cytomegalovirus (HCMV) Davis; assay type: functional, organism-based

EC50 (Human alphaherpesvirus 3 [1]) [µM]	EC50 (Human alphaherpesvirus 3 [2]) [µM]	EC50 (Human alphaherpesvirus 3 [3]) [µM]	EC50 (Human alphaherpesvirus 3 [5]) [µM]	EC50 (Human betaherpesvirus 5 [7]) [µM]	EC50 (Human betaherpesvirus 5 [8]) [µM]	Structure (SMILES)	MCC (HEL [4]) [µM]	CC50 (HEL [6]) [µM]
> 5	> 5	0.06	0.05	> 5	5	CC(C)CCOCCCCCCCCCc1cc2cn([C@H]3C[C@H](O)[C@@H](CO)O3)c(=O)nc2o1	10	> 200
> 5	> 5	0.1	0.09	> 5	5	O=c1nc2oc(CCCCCCCCCOCC3CCCC3)cc2cn1[C@H]1C[C@H](O)[C@@H](CO)O1	≥ 5	> 200
–	–	–	6	–	–	CCCCCCCOCCc1cc2cn([C@H]3C[C@H](O)[C@@H](CO)O3)c(=O)nc2o1	–	–
≥ 50	≥ 200	0.03	0.05	9.7	30	O=c1nc2oc(CCCCCCCCCOCCCCCl)cc2cn1[C@H]1C[C@H](O)[C@@H](CO)O1	≥ 200	> 200
> 5	> 5	0.02	0.01	> 5	> 5	CCCCCOCCCCCCCCCc1cc2cn([C@H]3C[C@H](O)[C@@H](CO)O3)c(=O)nc2o1	10	> 200
> 5	> 5	0.03	0.02	> 5	> 5	CCCCOCCCCCCCCCc1cc2cn([C@H]3C[C@H](O)[C@@H](CO)O3)c(=O)nc2o1	20	> 200

Structure (SMILES)	EC50 (Human alphaherpesvirus 3 [1]) [µM]	EC50 (Human alphaherpesvirus 3 [2]) [µM]	EC50 (Human alphaherpesvirus 3 [3]) [µM]	EC50 (Human alphaherpesvirus 3 [5]) [µM]	EC50 (Human betaherpesvirus 5 [7]) [µM]	EC50 (Human betaherpesvirus 5 [8]) [µM]	MCC (HEL [4]) [µM]	CC50 (HEL [6]) [µM]
Nc1nc2c(ncn2COC(CO)CO)c(=O)[nH]1 [GANCICLOVIR]	–	–	–	–	4	5.7	> 150	> 150
